For nine molecules, Selectivity and IC50 results are on record in patent EP4786487A1, “PEPTIDE” (Peptidream Inc, priority 2023, dated 2025).

Starred links: 1 amine or outer side, 2 acyl side, 3 side chain; linkers in the order of their positions; H or OH if unused. Positions of bridges follow the written chain, without caps; N, C: chain ends. Non-standard residues stand in square brackets, D forms with d. Residues, ends and D or L forms follow the SMILES beside them. Phe(3-OCH2COOH) = N[C@@H](Cc1cccc(OCC(=O)O)c1)C(=O)O; Phe(4-COOH) = N[C@@H](Cc1ccc(C(=O)O)cc1)C(=O)O; Trp(7-aza) = N[C@@H](Cc1c[nH]c2ncccc12)C(=O)O; Gly(N(CH2)3COOH) = O=C(O)CCCNCC(=O)O; X1 = CCCCCCC[C@H](N[*:1])C(=O)[*:2]; NMeF = CN[C@@H](Cc1ccccc1)C(=O)O; 4Pal = N[C@@H](Cc1ccncc1)C(=O)O; NMeA = CN[C@@H](C)C(=O)O; Sar = CNCC(=O)O

Assay type in all cases: cell-based
In experiment [1] the test system is Myostatin. The experiment in a line: Reporter gene assay for myostatin signaling in HepG2 cell line, Evaluation Procedure (1), myostatin inhibition. As to conditions: Method A; GDF-11 IC50 versus Myostatin IC50. In short, it runs like this: (§1)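 HepG2 cells transfected with pGL3(CAGA)12-luciferase reporter, serum-starved in 0.1% BSA medium, then stimulated with myostatin or GDF-11 plus 4-fold peptide dilutions (0.006–100 nmol/L for myostatin, 0.12–2000 nmol/L for GDF-11) for 20–24 h at 37 °C. Luminescence read with One-Glo; IC50 calculated.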

Experiment [2] addresses T1, Myostatin (Homo sapiens, UniProt O14793).
T1 construct: active myostatin (also called mature myostatin) is a homodimer consisting of two C-terminal growth factor domains; purchased R&D systems 788-G8/CF
T1 sequence (O14793 267-375): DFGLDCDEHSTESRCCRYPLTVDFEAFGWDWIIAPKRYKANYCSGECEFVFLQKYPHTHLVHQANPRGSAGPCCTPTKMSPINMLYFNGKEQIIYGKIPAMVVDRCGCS
Described as above. As to conditions: Method A: Myostatin 10 ng/mL; read-out: IC50 (Luciferase) Myostatin HepG2. The essentials: as §1

In a further experiment the target is T2, GDF-11 (Homo sapiens, UniProt O95390).
T2 construct: purchased R&D systems 1958-GD-G8/CF
T2 sequence (O95390 299-407): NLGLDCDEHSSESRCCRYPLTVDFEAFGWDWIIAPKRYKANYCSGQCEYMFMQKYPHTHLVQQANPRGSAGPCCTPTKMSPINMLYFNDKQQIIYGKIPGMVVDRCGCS
In words: Reporter gene assay for myostatin signaling in HepG2 cell line, Evaluation Procedure (1), GDF-11 inhibition. As to conditions: Method A: GDF-11 10 ng/mL; read-out: IC50 (Luciferase) GDF-11 HepG2. In short, it runs like this: as §1

In the case of `CCCCCCC[C@@H]1NC(=O)[C@H](Cc2ccccc2)N(C)C(=O)[C@H](CCCNC(=N)N)NC(=O)[C@H](Cc2ccc(C(=O)O)cc2)NC(=O)[C@H](Cc2ccc(O)cc2)NC(=O)CN(C)C(=O)[C@H]([C@@H](C)CC)NC(=O)[C@H](Cc2ccccc2)N(C)C(=O)[C@H](Cc2ccc(O)cc2)NC(=O)[C@H](Cc2c[nH]c3ccccc23)NC(=O)[C@H](C)NC(=O)CN(CCCC(=O)O)C(=O)CSC[C@H](C(=O)O)NC(=O)[C@H](Cc2ccccc2)N(C)C(=O)[C@H](C)N(C)C1=O` [Myostatin_99_v167] ({CH2CO}-[Gly(N(CH2)3COOH)]AWY[NMeF]I[Sar]Y[Phe(4-COOH)]R[NMeF][X1][NMeA][NMeF][dC]-OH; thioether N-15), in the experiment on Myostatin [1], the Selectivity came out at 48. In addition, the IC50 on Myostatin [2] was found to be 4.5 nM; on GDF-11 it was 214 nM.
As for `CCCCCCC[C@@H]1NC(=O)[C@H](Cc2ccccc2)N(C)C(=O)[C@H](CCCNC(=N)N)NC(=O)[C@H](Cc2ccc(C(=O)O)cc2)NC(=O)[C@H](Cc2ccc(O)cc2)NC(=O)CN(C)C(=O)[C@H]([C@@H](C)CC)NC(=O)[C@H](Cc2ccccc2)N(C)C(=O)[C@H](Cc2ccc(O)cc2)NC(=O)[C@H](Cc2c[nH]c3ncccc23)NC(=O)[C@H](C)NC(=O)CN(CCCC(=O)O)C(=O)CSC[C@H](C(=O)O)NC(=O)[C@H](Cc2ccccc2)N(C)C(=O)[C@H](C)N(C)C1=O` [Myostatin_99_v168] ({CH2CO}-[Gly(N(CH2)3COOH)]A[Trp(7-aza)]Y[NMeF]I[Sar]Y[Phe(4-COOH)]R[NMeF][X1][NMeA][NMeF][dC]-OH; thioether N-15), the Selectivity in the experiment on Myostatin [1] came to 57. In addition, the IC50 is 2.1 nM at Myostatin [2] and 119 nM at GDF-11.
`CCCCCCC[C@@H]1NC(=O)[C@H](Cc2ccccc2)N(C)C(=O)[C@H](CCCNC(=N)N)NC(=O)[C@H](Cc2ccc(C(=O)O)cc2)NC(=O)[C@H](Cc2ccncc2)NC(=O)CN(C)C(=O)[C@H]([C@@H](C)CC)NC(=O)[C@H](Cc2ccccc2)N(C)C(=O)[C@H](Cc2ccc(O)cc2)NC(=O)[C@H](Cc2c[nH]c3ccccc23)NC(=O)[C@H](C)NC(=O)CN(CCCC(=O)O)C(=O)CSC[C@H](C(=O)O)NC(=O)[C@H](Cc2ccccc2)N(C)C(=O)[C@H](C)N(C)C1=O` [Myostatin_99_v169] ({CH2CO}-[Gly(N(CH2)3COOH)]AWY[NMeF]I[Sar][4Pal][Phe(4-COOH)]R[NMeF][X1][NMeA][NMeF][dC]-OH; thioether N-15): the Selectivity with Myostatin [1] is 310. The IC50 is 1.2 nM on Myostatin [2] and 372 nM on GDF-11.
Regarding `CCCCCCC[C@@H]1NC(=O)[C@H](Cc2ccccc2)N(C)C(=O)[C@H](CCCNC(=N)N)NC(=O)[C@H](Cc2ccc(C(=O)O)cc2)NC(=O)[C@H](Cc2ccncc2)NC(=O)CN(C)C(=O)[C@H]([C@@H](C)CC)NC(=O)[C@H](Cc2ccccc2)N(C)C(=O)[C@H](Cc2ccc(O)cc2)NC(=O)[C@H](Cc2c[nH]c3ncccc23)NC(=O)[C@H](C)NC(=O)CN(CCCC(=O)O)C(=O)CSC[C@H](C(=O)O)NC(=O)[C@H](Cc2ccccc2)N(C)C(=O)[C@H](C)N(C)C1=O` [Myostatin_99_v170] ({CH2CO}-[Gly(N(CH2)3COOH)]A[Trp(7-aza)]Y[NMeF]I[Sar][4Pal][Phe(4-COOH)]R[NMeF][X1][NMeA][NMeF][dC]-OH; thioether N-15), in the experiment on Myostatin [1], the Selectivity turned out to be 65. In addition, the IC50 is 3.3 nM at Myostatin [2] and 215 nM at GDF-11.
In the case of `CC[C@H](C)[C@@H]1NC(=O)[C@H](Cc2ccccc2)N(C)C(=O)[C@H](Cc2ccc(O)cc2)NC(=O)[C@H](Cc2c[nH]c3ccccc23)NC(=O)[C@H](CO)NC(=O)CN(CCCC(=O)O)C(=O)CSC[C@H](C(=O)O)NC(=O)[C@H](Cc2ccccc2)N(C)C(=O)[C@H](C)N(C)C(=O)[C@H](CC(C)C)NC(=O)[C@H](Cc2ccccc2)N(C)C(=O)[C@H](CCCNC(=N)N)NC(=O)[C@H](Cc2ccc(C(=O)O)cc2)NC(=O)[C@H](Cc2ccc(O)cc2)NC(=O)CN(C)C1=O` [Myostatin_99_v171] ({CH2CO}-[Gly(N(CH2)3COOH)]SWY[NMeF]I[Sar]Y[Phe(4-COOH)]R[NMeF]L[NMeA][NMeF][dC]-OH; thioether N-15), the Selectivity in the experiment on Myostatin [1] turned out to be 20. The IC50 on Myostatin [2] was determined as 44.7 nM; at GDF-11, 909 nM.
On to `CC[C@H](C)[C@@H]1NC(=O)[C@H](Cc2ccccc2)N(C)C(=O)[C@H](Cc2ccc(O)cc2)NC(=O)[C@H](Cc2c[nH]c3ccccc23)NC(=O)[C@H](C)NC(=O)[C@H](C)NC(=O)CSC[C@H](C(=O)O)NC(=O)[C@H](Cc2ccccc2)N(C)C(=O)[C@H](C)N(C)C(=O)[C@H](CC(C)C)NC(=O)[C@H](Cc2ccccc2)N(C)C(=O)[C@H](CCCNC(=N)N)NC(=O)[C@H](Cc2ccc(C(=O)O)cc2)NC(=O)[C@H](Cc2ccc(O)cc2)NC(=O)CN(C)C1=O` [Myostatin_99_v172] ({CH2CO}-AAWY[NMeF]I[Sar]Y[Phe(4-COOH)]R[NMeF]L[NMeA][NMeF][dC]-OH; thioether N-15), for which the Selectivity in the experiment with Myostatin [1] amounted to 34. For the same molecule, the IC50 at Myostatin [2] came out at 5.1 nM; at GDF-11, 173 nM.
For the molecule `CCCCCCC[C@@H]1NC(=O)[C@H](Cc2ccccc2)N(C)C(=O)[C@H](CCCNC(=N)N)NC(=O)[C@H](Cc2ccc(C(=O)O)cc2)NC(=O)[C@H](Cc2ccc(O)cc2)NC(=O)CN(C)C(=O)[C@H]([C@@H](C)CC)NC(=O)[C@H](Cc2ccccc2)N(C)C(=O)[C@H](Cc2ccc(O)cc2)NC(=O)[C@H](Cc2c[nH]c3ccccc23)NC(=O)[C@H](CO)NC(=O)CN(CCCC(=O)O)C(=O)CSC[C@H](C(=O)O)NC(=O)[C@H](Cc2ccccc2)N(C)C(=O)[C@H](C)N(C)C1=O` [Myostatin_99_v173] ({CH2CO}-[Gly(N(CH2)3COOH)]SWY[NMeF]I[Sar]Y[Phe(4-COOH)]R[NMeF][X1][NMeA][NMeF][dC]-OH; thioether N-15), the Selectivity in the experiment on Myostatin [1] stood at 42. In addition, the results for the IC50 at Myostatin [2] and on GDF-11 were 5.5 nM and 232 nM, respectively.
`CCCCCCC[C@@H]1NC(=O)[C@H](Cc2ccccc2)N(C)C(=O)[C@H](CCCNC(=N)N)NC(=O)[C@H](Cc2ccc(C(=O)O)cc2)NC(=O)[C@H](Cc2cccc(OCC(=O)O)c2)NC(=O)CN(C)C(=O)[C@H]([C@@H](C)CC)NC(=O)[C@H](Cc2ccccc2)N(C)C(=O)[C@H](Cc2ccc(O)cc2)NC(=O)[C@H](Cc2c[nH]c3ccccc23)NC(=O)[C@H](C)NC(=O)[C@H](C)NC(=O)CSC[C@H](C(=O)O)NC(=O)[C@H](Cc2ccccc2)N(C)C(=O)[C@H](C)N(C)C1=O` [Myostatin_99_v174] ({CH2CO}-AAWY[NMeF]I[Sar][Phe(3-OCH2COOH)][Phe(4-COOH)]R[NMeF][X1][NMeA][NMeF][dC]-OH; thioether N-15): the Selectivity in the experiment with Myostatin [1] came to 133. In addition, the IC50 at Myostatin [2] was 1.7 nM; at GDF-11, 226 nM.
The corresponding values for `CC[C@H](C)[C@@H]1NC(=O)[C@H](Cc2ccccc2)N(C)C(=O)[C@H](Cc2ccc(O)cc2)NC(=O)[C@H](Cc2c[nH]c3ccccc23)NC(=O)[C@H](CO)NC(=O)[C@H](C)NC(=O)CSC[C@H](C(=O)O)NC(=O)[C@H](Cc2ccccc2)N(C)C(=O)[C@H](C)N(C)C(=O)[C@H](CC(C)C)NC(=O)[C@H](Cc2ccccc2)N(C)C(=O)[C@H](CCCNC(=N)N)NC(=O)[C@H](Cc2ccc(C(=O)O)cc2)NC(=O)[C@H](Cc2ccc(O)cc2)NC(=O)CN(C)C1=O` [Myostatin_99_v175] ({CH2CO}-ASWY[NMeF]I[Sar]Y[Phe(4-COOH)]R[NMeF]L[NMeA][NMeF][dC]-OH; thioether N-15) are 24, 16.4 nM and 399 nM.
